Test [1] addresses human V1a receptor (Homo sapiens (Human), UniProt P37288). In words: Cellular in vitro assay for determining vasopressin receptor activity (V1a, aequorin luminescence). As to conditions: for IC50: CHO cell line transfected with human V1a receptor, [Arg8]-vasopressin at EC50 concentration, read-out: IC50 hV1a; for ratio IC50 hV2/hV1a: selectivity, IC50 hV2 divided by IC50 hV1a. The class given is cell-based.

The target in test [2] is human V2 receptor (Homo sapiens (Human), UniProt P30518). Nature of the test: Cellular in vitro assay for determining vasopressin receptor activity (V2, CRE-luciferase). As to conditions: CHO cell line transfected with human V2 receptor; [Arg8]-vasopressin at EC50 concentration; read-out: IC50 hV2. The class given is cell-based.
Sequence of human V2 receptor (P30518 whole entry): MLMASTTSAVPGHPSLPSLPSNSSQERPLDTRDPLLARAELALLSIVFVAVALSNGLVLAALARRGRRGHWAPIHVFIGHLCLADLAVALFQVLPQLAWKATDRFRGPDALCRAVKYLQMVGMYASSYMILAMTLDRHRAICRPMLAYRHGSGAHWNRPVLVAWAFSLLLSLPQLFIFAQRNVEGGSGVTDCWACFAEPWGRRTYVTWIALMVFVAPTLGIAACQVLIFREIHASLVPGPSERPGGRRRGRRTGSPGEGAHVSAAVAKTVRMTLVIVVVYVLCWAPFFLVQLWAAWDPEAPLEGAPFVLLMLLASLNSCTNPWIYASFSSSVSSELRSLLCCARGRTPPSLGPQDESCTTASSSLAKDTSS

Sequence of human V1a receptor (P37288 whole entry): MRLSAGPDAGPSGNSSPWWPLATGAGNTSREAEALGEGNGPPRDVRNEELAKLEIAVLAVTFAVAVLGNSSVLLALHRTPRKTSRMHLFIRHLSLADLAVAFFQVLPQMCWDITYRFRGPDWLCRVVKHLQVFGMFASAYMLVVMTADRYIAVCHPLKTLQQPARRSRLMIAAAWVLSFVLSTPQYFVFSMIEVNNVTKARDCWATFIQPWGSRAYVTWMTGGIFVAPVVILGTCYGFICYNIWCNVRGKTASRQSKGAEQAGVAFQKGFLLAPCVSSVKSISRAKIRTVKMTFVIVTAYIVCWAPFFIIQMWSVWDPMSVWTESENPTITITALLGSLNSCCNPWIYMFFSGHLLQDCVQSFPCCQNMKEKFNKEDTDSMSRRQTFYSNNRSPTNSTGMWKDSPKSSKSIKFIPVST

Broadly, the IC50 is the concentration at which inhibition is half-maximal. `CS(=O)(=O)CC(=O)NC(Cn1c(-c2ccc(Cl)cc2)nn(Cc2ncn(-c3ncccc3C(F)(F)F)n2)c1=O)C(F)(F)F` (racemic) [Example 64, N-{3-[3-(4-Chlorophenyl)-5-oxo-1-({1-[3-(trifluoromethyl)pyridin-2-yl]-1H-1,2,4-triazol-3-yl}methyl)-1,5-dihydro-4H-1,2,4-triazol-4-yl]-1,1,1-trifluoropropan-2-yl}-2-(methanesulfonyl)acetamide]: in test [1], the concentration for half-maximal inhibition (IC50) was 1.2 nM and the “ratio IC50 hV2/hV1a” value is reported as 65.2. In addition, the IC50 in test [2] is 78.2 nM.
Consider `N#CC1(C(=O)NC(Cn2c(-c3ccc(Cl)cc3)nn(Cc3ncn(-c4ncccc4C(F)(F)F)n3)c2=O)C(F)(F)F)CC1` (racemic) [Example 65, N-{3-[3-(4-Chlorophenyl)-5-oxo-1-({1-[3-(trifluoromethyl)pyridin-2-yl]-1H-1,2,4-triazol-3-yl}methyl)-1,5-dihydro-4H-1,2,4-triazol-4-yl]-1,1,1-trifluoropropan-2-yl}-1-cyanocyclopropane-1-carboxamide], for which the IC50 is 9.1 nM in test [1] and 490 nM in test [2]. The “ratio IC50 hV2/hV1a” value in test [1] came out at 53.8.
Regarding `O=C(CC(F)(F)F)NC(Cn1c(-c2ccc(Cl)cc2)nn(Cc2ncn(-c3ncccc3C(F)(F)F)n2)c1=O)C(F)(F)F` (racemic) [Example 67, N-{3-[3-(4-Chlorophenyl)-5-oxo-1-({1-[3-(trifluoromethyl)pyridin-2-yl]-1H-1,2,4-triazol-3-yl}methyl)-1,5-dihydro-4H-1,2,4-triazol-4-yl]-1,1,1-trifluoropropan-2-yl}-3,3,3-trifluoropropanamide], in test [1], the concentration for half-maximal inhibition (IC50) is 1.15 nM and the “ratio IC50 hV2/hV1a” value was 49.6. For the same molecule, in test [2], the 50% inhibitory concentration (IC50) turned out to be 57 nM.
`COCC(=O)NC(Cn1c(-c2ccc(Cl)cc2)nn(Cc2ncn(-c3ncccc3C(F)(F)F)n2)c1=O)C(F)(F)F` (racemic) [Example 68, N-{3-[3-(4-Chlorophenyl)-5-oxo-1-({1-[3-(trifluoromethyl)pyridin-2-yl]-1H-1,2,4-triazol-3-yl}methyl)-1,5-dihydro-4H-1,2,4-triazol-4-yl]-1,1,1-trifluoropropan-2-yl}-2-methoxyacetamide]: the figures for the IC50 in test [1] and in test [2] were 6.15 nM and 530 nM, respectively. For the same molecule, the “ratio IC50 hV2/hV1a” value in test [1] is 86.2.
For the molecule `O=C(CCC(F)(F)F)NC(Cn1c(-c2ccc(Cl)cc2)nn(Cc2ncn(-c3ncccc3Cl)n2)c1=O)C(F)(F)F` (single isomer, unassigned) [Example 33, N-{3-[3-(4-Chlorophenyl)-1-{[1-(3-chloropyridin-2-yl)-1H-1,2,4-triazol-3-yl]methyl}-5-oxo-1,5-dihydro-4H-1,2,4-triazol-4-yl]-1,1,1-trifluoropropan-2-yl}-4,4,4-trifluorobutanamide], the concentration for half-maximal inhibition (IC50) in test [1] is 215 nM; in test [2] it was 5600 nM.
Turning to `O=C(CCC(F)(F)F)NC(Cn1c(-c2ccc(Cl)cc2)nn(Cc2ncn(-c3ncccc3Cl)n2)c1=O)C(F)(F)F` (single isomer, unassigned) [Example 34, N-{3-[3-(4-Chlorophenyl)-1-{[1-(3-chloropyridin-2-yl)-1H-1,2,4-triazol-3-yl]methyl}-5-oxo-1,5-dihydro-4H-1,2,4-triazol-4-yl]-1,1,1-trifluoropropan-2-yl}-4,4,4-trifluorobutanamide], the values for the half-maximal inhibitory concentration (IC50) in test [1] and in test [2] were 0.82 nM and 33.5 nM, respectively.
Regarding `O=C1CC[C@@H](C(=O)NC(Cn2c(-c3ccc(Cl)cc3)nn(Cc3ncn(-c4ncccc4Cl)n3)c2=O)C(F)(F)F)N1` (single isomer, unassigned) [Example 36, N-{3-[3-(4-Chlorophenyl)-1-{[1-(3-chloropyridin-2-yl)-1H-1,2,4-triazol-3-yl]methyl}-5-oxo-1,5-dihydro-4H-1,2,4-triazol-4-yl]-1,1,1-trifluoropropan-2-yl}-5-oxo-L-prolinamide], the IC50 in test [1] came to 3.5 nM; in test [2], 890 nM. Moreover, the “ratio IC50 hV2/hV1a” value in test [1] came out at 254.3.
The corresponding values for `O=C1CC[C@@H](C(=O)NC(Cn2c(-c3ccc(Cl)cc3)nn(Cc3ncn(-c4ncccc4Cl)n3)c2=O)C(F)(F)F)N1` (single isomer, unassigned) [Example 37, N-{3-[3-(4-Chlorophenyl)-1-{[1-(3-chloropyridin-2-yl)-1H-1,2,4-triazol-3-yl]methyl}-5-oxo-1,5-dihydro-4H-1,2,4-triazol-4-yl]-1,1,1-trifluoropropan-2-yl}-5-oxo-L-prolinamide] are 295 nM, 32000 nM and 108.5.
`O=C(NC(Cn1c(-c2ccc(Cl)cc2)nn(Cc2ncn(-c3ncccc3Cl)n2)c1=O)C(F)(F)F)C1CS(=O)(=O)C1` (single isomer, unassigned) [Example 39, N-{3-[3-(4-Chlorophenyl)-1-{[1-(3-chloropyridin-2-yl)-1H-1,2,4-triazol-3-yl]methyl}-5-oxo-1,5-dihydro-4H-1,2,4-triazol-4-yl]-1,1,1-trifluoropropan-2-yl}thietane-3-carboxamide 1,1-dioxide]: the results for the concentration for half-maximal inhibition (IC50) in test [1] and in test [2] were 0.48 nM and 53.2 nM, respectively.
As to `O=C(NC(Cn1c(-c2ccc(Cl)cc2)nn(Cc2ncn(-c3ncccc3Cl)n2)c1=O)C(F)(F)F)C1CS(=O)(=O)C1` (single isomer, unassigned) [Example 40, N-{3-[3-(4-Chlorophenyl)-1-{[1-(3-chloropyridin-2-yl)-1H-1,2,4-triazol-3-yl]methyl}-5-oxo-1,5-dihydro-4H-1,2,4-triazol-4-yl]-1,1,1-trifluoropropan-2-yl}thietane-3-carboxamide 1,1-dioxide], the results for the IC50 in test [1] and in test [2] were 370 nM and 9870 nM, respectively.
The corresponding values for `O=C(NC(Cn1c(-c2ccc(Cl)cc2)nn(Cc2ncn(-c3ncccc3Cl)n2)c1=O)C(F)(F)F)C1(C(F)(F)F)CC1` (single isomer, unassigned) [Example 42, N-{3-[3-(4-Chlorophenyl)-1-{[1-(3-chloropyridin-2-yl)-1H-1,2,4-triazol-3-yl]methyl}-5-oxo-1,5-dihydro-4H-1,2,4-triazol-4-yl]-1,1,1-trifluoropropan-2-yl}-1-(trifluoromethyl)cyclopropane-carboxamide] are 1350 nM and 12100 nM.
On to `CS(=O)(=O)CC(=O)NC(Cn1c(-c2ccc(Cl)cc2)nn(Cc2ncn(-c3ncccc3Cl)n2)c1=O)C(F)(F)F` (single isomer, unassigned) [Example 45, N-{3-[3-(4-Chlorophenyl)-1-{[1-(3-chloropyridin-2-yl)-1H-1,2,4-triazol-3-yl]methyl}-5-oxo-1,5-dihydro-4H-1,2,4-triazol-4-yl]-1,1,1-trifluoropropan-2-yl}-2-(methylsulfonyl)acetamide], for which the figures for the IC50 in test [1] and in test [2] were 235 nM and 2300 nM, respectively.
On to `CS(=O)(=O)CC(=O)NC(Cn1c(-c2ccc(Cl)cc2)nn(Cc2ncn(-c3ncccc3Cl)n2)c1=O)C(F)(F)F` (single isomer, unassigned) [Example 46, N-{3-[3-(4-Chlorophenyl)-1-{[1-(3-chloropyridin-2-yl)-1H-1,2,4-triazol-3-yl]methyl}-5-oxo-1,5-dihydro-4H-1,2,4-triazol-4-yl]-1,1,1-trifluoropropan-2-yl}-2-(methylsulfonyl)acetamide], for which the half-inhibitory concentration (IC50) in test [1] was found to be 1.35 nM; in test [2] it was 57.8 nM.
Consider `O=C1NCC(C(=O)NC(Cn2c(-c3ccc(Cl)cc3)nn(Cc3ncn(-c4ncccc4Cl)n3)c2=O)C(F)(F)F)N1` (centres unmarked) [Example 2], for which, in test [1], the IC50 stood at 40.5 nM and the “ratio IC50 hV2/hV1a” value was determined as 59.3. Also, the IC50 in test [2] was determined as 2400 nM.
The corresponding values for `O=C(NC(Cn1c(-c2ccc(Cl)cc2)nn(Cc2ncn(-c3ncccc3Cl)n2)c1=O)C(F)(F)F)C1CCO1` (centres unmarked) [Example 3, N-{3-[3-(4-Chlorophenyl)-1-{[1-(3-chloropyridin-2-yl)-1H-1,2,4-triazol-3-yl]methyl}-5-oxo-1,5-dihydro-4H-1,2,4-triazol-4-yl]-1,1,1-trifluoropropan-2-yl}oxetane-2-carboxamide] are 4.1 nM, 108.5 and 445 nM.
The corresponding values for `O=C(NC(Cn1c(-c2ccc(Cl)cc2)nn(Cc2ncn(-c3ncccc3Cl)n2)c1=O)C(F)(F)F)C1CC1(F)F` (centres unmarked) [Example 7, N-{3-[3-(4-Chlorophenyl)-1-{[1-(3-chloropyridin-2-yl)-1H-1,2,4-triazol-3-yl]methyl}-5-oxo-1,5-dihydro-4H-1,2,4-triazol-4-yl]-1,1,1-trifluoropropan-2-yl}-2,2-difluorocyclopropanecarboxamide] are 1.65 nM, 78.8 and 130 nM.
The corresponding values for `CC(F)C(=O)NC(Cn1c(-c2ccc(Cl)cc2)nn(Cc2ncn(-c3ncccc3Cl)n2)c1=O)C(F)(F)F` (centres unmarked) [Example 10] are 6.1 nM, 59.8 and 365 nM.
Take `O=C(NC(Cn1c(-c2ccc(Cl)cc2)nn(Cc2ncn(-c3ncccc3Cl)n2)c1=O)C(F)(F)F)C1CC1F` (centres unmarked) [Example 12, N-{3-[3-(4-Chlorophenyl)-1-{[1-(3-chloropyridin-2-yl)-1H-1,2,4-triazol-3-yl]methyl}-5-oxo-1,5-dihydro-4H-1,2,4-triazol-4-yl]-1,1,1-trifluoropropan-2-yl}-2-fluorocyclopropanecarboxamide]: the values for the IC50 in test [1] and in test [2] were 22.5 nM and 560 nM, respectively. In addition, the “ratio IC50 hV2/hV1a” value in test [1] turned out to be 24.9.
The corresponding values for `O=C(NC(Cn1c(-c2ccc(Cl)cc2)nn(Cc2ncn(-c3ncccc3Cl)n2)c1=O)C(F)(F)F)C1CC1C(F)(F)F` (centres unmarked) [Example 18, N-{3-[3-(4-Chlorophenyl)-1-{[1-(3-chloropyridin-2-yl)-1H-1,2,4-triazol-3-yl]methyl}-5-oxo-1,5-dihydro-4H-1,2,4-triazol-4-yl]-1,1,1-trifluoropropan-2-yl}-2-(trifluoromethyl)cyclopropanecarboxamide] are 2.5 nM, 33.5 nM and 13.4.

Source of the values: US11149023B2, “Substituted triazole derivatives and uses thereof” (Bayer Pharma Aktiengesellschaft, priority 2017, dated 2021).
